Experimental findings from patent US20080015146A1, “Dpp-IV Inhibitors” (SANTHERA PHARMACEUTICALS (DEUTSCHLAND) AG, priority 2004, published 2008) are described below.

SMILES strings stand for the structures. Where a name gives a salt, the structure may show the parent alone. Some results are limits rather than exact numbers.

T1 sequence (P27487 31-766): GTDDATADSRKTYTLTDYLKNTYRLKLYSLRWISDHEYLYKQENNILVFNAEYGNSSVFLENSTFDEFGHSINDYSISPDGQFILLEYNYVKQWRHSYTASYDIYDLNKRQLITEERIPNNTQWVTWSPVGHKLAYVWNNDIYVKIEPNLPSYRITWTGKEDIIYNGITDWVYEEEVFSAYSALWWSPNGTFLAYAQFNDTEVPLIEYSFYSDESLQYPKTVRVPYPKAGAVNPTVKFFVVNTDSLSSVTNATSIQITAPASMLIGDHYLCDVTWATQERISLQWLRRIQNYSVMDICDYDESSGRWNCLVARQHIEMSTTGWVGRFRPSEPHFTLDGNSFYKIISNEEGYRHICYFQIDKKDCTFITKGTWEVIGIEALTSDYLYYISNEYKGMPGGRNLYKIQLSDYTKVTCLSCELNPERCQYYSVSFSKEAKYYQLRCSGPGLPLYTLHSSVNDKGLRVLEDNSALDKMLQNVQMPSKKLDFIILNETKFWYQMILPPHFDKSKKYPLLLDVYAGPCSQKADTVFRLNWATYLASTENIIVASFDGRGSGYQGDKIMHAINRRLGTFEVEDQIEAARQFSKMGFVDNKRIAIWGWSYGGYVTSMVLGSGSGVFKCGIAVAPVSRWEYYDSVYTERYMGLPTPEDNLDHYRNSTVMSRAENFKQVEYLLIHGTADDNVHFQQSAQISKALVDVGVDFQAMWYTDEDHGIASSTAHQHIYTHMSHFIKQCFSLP

This test addresses T1, DPP-IV (Homo sapiens, UniProt P27487).
T1 construct: Soluble human DPP-IV lacking the transmembrane anchor (Gly31-Pro766); Pre-Pro-alpha-mating factor secretion leader (N, cleaved yes); made in house
Nature of the test: Continuous fluorimetric assay of inhibition of DPP-IV peptidase activity (cleavage of Gly-Pro-AMC). In kind it is biochemical. The following applies: substrate Gly-Pro-AMC 16 μM, pH 7.4, 25° C., 1% DMSO; assays carried out with human and porcine DPP-IV (comparable activities). As to the method:
Inhibition of DPP-IV peptidase activity was monitored with a continuous fluorimetric assay. This assay is based on the cleavage of the substrate Gly-Pro-AMC (Bachem) by DPP-IV, releasing free AMC. The assay is carried out in 96-well microtiterplates. In a total volume of 100 μl compounds are preincubated with […] DPP-IV employing a buffer containing 10 mM Hepes, 150 mM NaCl, 0.005% Tween 20 (pH 7.4). […] The final concentration of DMSO is 1%. The inhibitory potential of the compounds were determined.
Soluble human DPP-IV lacking the transmembrane anchor (Gly31-Pro766) was expressed in a recombinant YEAST-strain as Pre-Pro-alpha-mating fusion. The secreted product (rhuDPP-IV-Gly31-Pro766) was purified from fermentation broth (>90% purity).
With `N[C@@H](CC(=O)N1CC(n2ccc(C3CC3)n2)C1)Cc1cc(F)c(F)cc1F` [Example 55, (R)-3-Amino-1-[3-(3-cyclopropyl-pyrazol-1-yl)-azetidin-1-yl]-4-(2,4,5-trifluoro-phenyl)butan-1-one], the IC50 (usually the concentration that gives 50% inhibition) is less than 100 nM. Turning to `N[C@@H](CC(=O)N1CCC[C@H]1c1nc(-c2ccc(F)cc2F)no1)Cc1ccccc1F` [Example 8, (R)-3-Amino-1-{(S)-2-[3-(2,4-difluoro-phenyl)-[1,2,4]oxadiazol-5-yl)-pyrrolidin-1-yl}-4-(2-fluoro-phenyl)-butan-1-one trifluoracetic acid salt], the IC50 is less than 100 nM. The same measure for `N[C@@H](CC(=O)N1CCC[C@H]1c1nc(C2CCC2)no1)Cc1cc(F)c(F)cc1F` [Example 15, (R)-3-Amino-1-[(S)-2-(3-cyclobutyl-[1,2,4]oxadiazol-5-yl)-pyrrolidin-1-yl]-4-(2,4,5-trifluoro-phenyl)-butan-1-one formate salt]: less than 100 nM.

As for `CS(=O)(=O)c1cccc(-c2noc([C@@H]3CCCN3C(=O)C[C@H](N)Cc3ccccc3F)n2)c1` [Example 9, (R)-3-Amino-1-{(S)-2-[3-(3-methanesulphonyl-phenyl)-[1,2,4]oxadiazol-5-yl)-pyrrolidin-1-yl}-4-(2-fluoro-phenyl)-butan-1-one trifluoracetic acid salt], the IC50 was less than 100 nM.

On to `N[C@@H](CC(=O)N1CCC[C@@H]1c1nc(-c2cccc(F)c2)no1)Cc1ccccc1F` [Example 30, (R)-3-Amino-1-{(R)-2-[3-(3-fluoro-phenyl) [1,2,4]oxadiazol-5-yl)-pyrrolidin-1-yl}-4-(2-fluoro-phenyl)-butan-1-one hydrochloride], for which the half-inhibitory concentration (IC50) lay within 101 to 1000 nM. The same measure for `N[C@@H](CC(=O)N1CCC[C@H]1c1nc(-c2cc(F)cc(F)c2)no1)Cc1ccccc1F` [Example 7, (R)-3-Amino-1-{(S)-2-[3-(3,5-difluoro-phenyl)-[1,2,4]oxadiazol-5-yl)-pyrrolidin-1-yl}-4-(2-fluoro-phenyl)-butan-1-one trifluoracetic acid salt]: less than 100 nM; for `N[C@@H](CC(=O)N1CCC[C@H]1c1ncn(-c2ccccc2)n1)Cc1ccccc1F` [Example 43, formate salt]: less than 100 nM; for `N[C@@H](CC(=O)N1CC(n2ccc(C(F)(F)F)n2)C1)Cc1cc(F)c(F)cc1F` [Example 53, (3R)-3-Amino-1-[3-(3-trifluoromethyl-pyrazol-1-yl)-azetidin-1-yl]-4-(2,4,5-trifluorophenyl)-butan-1-one]: less than 100 nM. The figure for `N[C@@H](CC(=O)N1CCC[C@H]1c1nc2cc(Cl)ccc2[nH]1)Cc1ccccc1F` [Example 40, (R)-3-Amino-1-[(S)-2-(5-chloro-1H-benzoimidazol-2-yl)-pyrrolidin-1-yl]-4-(2-fluorophenyl)-butan-1-one trifluoroacetic acid salt] is less than 100 nM. The figure for `N[C@@H](CC(=O)N1CCC[C@H]1c1nc(-c2ccccc2)co1)Cc1ccccc1F` [Example 45, formate salt] is less than 100 nM; for `CC(C)(C)c1noc([C@@H]2CCN2C(=O)C[C@H](N)Cc2cc(F)c(F)cc2F)n1` [Example 49, (R)-3-Amino-1-[(S)-2-(3-tert-butyl-[1,2,4]oxadiazol-5-yl)-azetidin-1-yl]-4-(2,4,5-trifluorophenyl)-butan-1-one formate salt] it is less than 100 nM; for `N[C@@H](CC(=O)N1CCC[C@@H]1c1nc(-c2ccccc2)no1)Cc1ccccc1F` [Example 28, (R)-3-Amino-4-(2-fluoro-phenyl)-1-[(R)-2-(3-phenyl-[1,2,4]oxadiazol-5-yl)-pyrrolidin-1-yl]-butan-1-one hydrochloride] it is 101 to 1000 nM. Regarding `N[C@@H](CC(=O)N1CCC[C@@H]1c1nc(-c2cccc(Cl)c2)no1)Cc1ccccc1F` [Example 29, (R)-3-Amino-1-{(R)-2-[3-(3-chloro-phenyl) [1,2,4]oxadiazol-5-yl)-pyrrolidin-1-yl}-4-(2-fluoro-phenyl)-butan-1-one hydrochloride], the IC50 was 101 to 1000 nM. The figure for `N[C@@H](CC(=O)N1CCC[C@H]1c1nc(-c2ccccc2)no1)Cc1ccccc1F` [Example 1, (R)-3-Amino-4-(2-fluoro-phenyl)-1-[(S)-2-(3-phenyl-[1,2,4]oxadiazol-5-yl)-pyrrolidin-1-yl]-butan-1-one hydrochloride] is less than 100 nM.

Consider `N[C@@H](CC(=O)N1CC(n2nccc2C2CC2)C1)Cc1cc(F)c(F)cc1F` [Example 56, (R)-3-amino-1-[3-(5-cyclopropyl-pyrazol-1-yl)-azetidin-1-yl]-4-(2,4,5-trifluoro-phenyl)-butan-1-one], for which the IC50 was less than 100 nM. The figure for `N[C@@H](CC(=O)N1CCC[C@H]1c1nnc(-c2ccccc2)[nH]1)Cc1ccccc1F` [Example 44, formate salt] is 101 to 1000 nM; for `N[C@@H](CC(=O)N1CC(n2cccn2)C1)Cc1ccccc1F` [Example 52, (3R)-3-Amino-4-(2-fluoro-phenyl)-1-(3-pyrazol-1-yl-azetidin-1-yl)-butan-1-one] it is 101 to 1000 nM.

Take `N[C@@H](CC(=O)N1CC(n2nccc2C(F)(F)F)C1)Cc1cc(F)c(F)cc1F` [Example 54, (3R)-3-amino-1-[3-(5-trifluoromethyl-pyrazol-1-yl)azetidin-1-yl]-4-(2,4,5-trifluoro-phenyl)-butan-1-one]: the IC50 was less than 100 nM. As to `N[C@@H](CC(=O)N1CCC[C@H]1c1nnc(-c2ccccc2)o1)Cc1ccccc1F` [Example 46, formate salt], the IC50 was in the range of 101 to 1000 nM. In turn, `N[C@@H](CC(=O)N1CCC[C@H]1c1nc(-c2ccccn2)no1)Cc1ccccc1F` [Example 5, (R)-3-Amino-4-(2-fluoro-phenyl)-1-[(S)-2-(3-pyridin-2-yl-[1,2,4]oxadiazol-5-yl)-pyrrolidin-1-yl]-butan-1-one] had an IC50 of less than 100 nM. In turn, `CS(=O)(=O)Nc1ccc(-c2noc([C@@H]3CCCN3C(=O)C[C@H](N)Cc3ccccc3F)n2)cc1` [Example 10, N-[4-(5-{(S)-1-[(R)-3-Amino-4-(2-fluoro-phenyl)-butyryl]-pyrrolidin-2-yl}-[1,2,4]oxadiazol-3-yl)-phenyl]-methanesulphonamide trifluoroacetic acid salt] showed a 50% inhibitory concentration (IC50) of less than 100 nM. The same measure for `N[C@@H](CC(=O)N1CCC[C@H]1c1nc(-c2cccc(F)c2)no1)Cc1ccccc1F` [Example 3, (R)-3-Amino-1-{(S)-2-[3-(3-fluoro-phenyl) [1,2,4]oxadiazol-5-yl)-pyrrolidin-1-yl}-4-(2-fluoro-phenyl)-butan-1-one hydrochloride]: less than 100 nM. The same measure for `N[C@@H](CC(=O)N1CCC[C@H]1c1ccn(-c2ccccc2)n1)Cc1ccccc1F` [Example 47, formate salt]: 101 to 1000 nM; for `N[C@@H](CC(=O)N1CC(N2CCC(C(F)(F)F)CC2)C1)Cc1ccccc1F` [Example 50, (3R)-3-Amino-4-(2-fluoro-phenyl)-1-[3-(4-trifluoromethyl-piperidin-1-yl)-azetidin-1-yl]-butan-1-one]: 1000 to 2000 nM; for `N[C@@H](CC(=O)N1CCC[C@H]1c1ncc(-c2ccccc2)[nH]1)Cc1ccccc1F` [Example 41, formate salt]: 101 to 1000 nM.

On to `CC(C)(C)n1cnc([C@@H]2CCCN2C(=O)C[C@H](N)Cc2cc(F)c(F)cc2F)n1` [Example 48], for which the IC50 is less than 100 nM.
